Experimental data from patent publication US20080194585A1, “Fungicidal Pyrazine Derivatives” (priority 2005, published 2008).
Marks after values point to notes of the source that are not given here.

Experiments:
[1] = tested on: Erysiphe graminis f. sp. tritici; experiment: Test L: wheat powdery mildew, preventive spray on wheat seedlings; settings: for Test L disease control rating: 200 ppm; for pest or weed control at 200 ppm: Blumeria graminis, in Triticum aestivum, 168 h, read-out: Test L disease control rating, 200 ppm
Septoria tritici = experiment: Test J: wheat leaf blotch, preventive spray on wheat seedlings; type: in vivo; settings: for pest or weed control at 200 ppm: Zymoseptoria tritici, 528 h, read-out: Test J disease control rating
From the text: A dash (-) indicates no test results.

[2] = tested on: Colletotrichum orbiculare; experiment: Test B: cucumber Colletotrichum anthracnose, preventive spray on cucumber seedlings; settings: for Test B disease control rating: 200 ppm; for pest or weed control at 200 ppm: Colletotrichum orbiculare, in Cucumis sativus, 144 h, read-out: Test B disease control rating, 200 ppm
Septoria nodorum = experiment: Test H: wheat glum blotch, preventive spray on wheat seedlings; settings: for Test H disease control rating: 200 ppm; for pest or weed control at 200 ppm: Parastagonospora nodorum, in Triticum aestivum, topical, 168 h, read-out: Test H disease control rating, 200 ppm
Method: (the causal agent of wheat glum blotch) and incubated in a saturated atmosphere at 20° C. for 48 h, and then moved to a growth chamber at 22° C. for 5 days, after which disease ratings were made.

[3] = tested on: Puccinia recondita f. sp. tritici; experiment: Test K: wheat leaf rust, preventive spray on wheat seedlings; settings: for Test K disease control rating: 200 ppm; for pest or weed control at 200 ppm: Puccinia recondita, in Triticum aestivum, 192 h, read-out: Test K disease control rating
Sclerotinia sclerotiorum = experiment: Test C: cucumber white mold, preventive spray on cucumber seedlings; settings: for Test C disease control rating: 200 ppm; for pest or weed control at 200 ppm: Sclerotinia sclerotiorum, in Cucumis sativus, 168 h, read-out: Test C disease control rating, 200 ppm
Botrytis cinerea = experiment: Test E: tomato botrytis, preventive spray on tomato seedlings; settings: for Test E disease control rating: 200 ppm; for pest or weed control at 200 ppm: Botrytis cinerea, in Solanum lycopersicum, topical, 72 h, read-out: Test E disease control rating
Plasmopara viticola = experiment: Test D: grape downy mildew, spray after inoculation of grape seedlings; type: in vivo; settings: 200 ppm; for pest or weed control at 200 ppm: Plasmopara viticola, 168 h, read-out: Test D disease control rating
From the text: Upon removal, disease ratings were made. […] A dash (-) indicates no test results.

fusarium graminearium = experiment: Test I: wheat head scab, preventive spray on wheat seedlings; settings: for Test I disease control rating: 200 ppm; for pest or weed control at 200 ppm: Fusarium, in Triticum aestivum, topical, 192 h, read-out: Test I disease control rating, 200 ppm
Method: (the causal agent of wheat head scab) and incubated in a saturated atmosphere at 20° C. for 72 h, and then moved to a growth chamber at 22° C. for 5 days, after which disease ratings were made.

Rhizoctonia oryzae = experiment: Test G: turf brown patch, preventive spray on creeping bent grass seedlings; settings: for Test G disease control rating: 200 ppm; for pest or weed control at 200 ppm: Waitea circinata, in Agrostis stolonifera, topical, 144 h, read-out: Test G disease control rating, 200 ppm
Method: (the causal agent of turf brown patch) and incubated in a saturated atmosphere at 27° C. for 24 h, and then moved to a growth chamber at 27° C. for 5 days, after which disease ratings were made.

Pythium aphanidermatum = experiment: Test A: bluegrass pythium blight, preventive spray on bluegrass seedlings; settings: for Test A disease control rating: 200 ppm; for pest or weed control at 200 ppm: Pythium aphanidermatum, 120 h, read-out: Test A disease control rating
Phytophthora infestans = experiment: whole plant or invertebrate; type: in vivo; settings: for Test F disease control rating: 200 ppm; for pest or weed control at 200 ppm: Phytophthora infestans, in Solanum lycopersicum, topical, 144 h, read-out: Test F disease control rating
[4] = 100 = 100% disease control, 0 = no control
[5] = 200 ppm, 100 = 100% disease control, 0 = no control

| SMILES | Test L disease control rating [1, 4] | Test J disease control rating (Septoria tritici; [5]) | Test B disease control rating [2, 4] | Test H disease control rating (Septoria nodorum; [4]) | Test K disease control rating [3, 4] | Test C disease control rating (Sclerotinia sclerotiorum; [4]) | Test E disease control rating (Botrytis cinerea; [4]) | Test D disease control rating (Plasmopara viticola; [4]) | Test I disease control rating (fusarium graminearium; [4]) | Test G disease control rating (Rhizoctonia oryzae; [4]) | Test A disease control rating (Pythium aphanidermatum; [4]) | Test F disease control rating (Phytophthora infestans; [4]) | pest or weed control at 200 ppm [1] | pest or weed control at 200 ppm [2] | pest or weed control at 200 ppm (Septoria nodorum) | pest or weed control at 200 ppm [3] | pest or weed control at 200 ppm (Sclerotinia sclerotiorum) | pest or weed control at 200 ppm (Botrytis cinerea) | pest or weed control at 200 ppm (Plasmopara viticola) | pest or weed control at 200 ppm (fusarium graminearium) | also measured |
| --- | --- | --- | --- | --- | --- | --- | --- | --- | --- | --- | --- | --- | --- | --- | --- | --- | --- | --- | --- | --- | --- |
| CCC(C)Cn1c(-c2ccc(F)cc2Cl)c(Cl)nc(-n2ccc(Br)n2)c1=O (racemic) [compound 259] | 59% | 100% | 94% | 0% | 89% | 0% | 100% | 0% | 0% | 16% | 82% | 0% | – | – | – | – | – | – | – | – | – |
| CCC(C)Cn1c(-c2ccc(F)cc2Cl)c(Cl)nc(-n2cc(Br)c(C)n2)c1=O (racemic) [compound 260] | 50% | 97% | 9% | 0% | 80% | 0% | 99% | 0% | 0% | 0% | 0% | 0% | – | – | – | – | – | – | – | – | – |
| CCC(C)Cn1c(-c2ccc(F)cc2Cl)c(Cl)nc(-n2ccc(C(OC)OC)n2)c1=O (racemic) [compound 261] | 98% | 100% | 100% | 99% | 100% | 83% | 100% | 40% | 0% | 0% | 0% | 0% | – | – | – | – | – | – | – | – | – |
| CC(C)Cn1c(-c2c(F)cccc2F)c(Cl)nc(-c2ccccn2)c1=O [Compound 2, 5-Chloro-6-(2,6-difluorophenyl)-1-(2-methylpropyl)-3-(2-pyridinyl)-2(1H)-pyrazinone] | – | – | – | – | – | – | – | – | – | – | – | – | 100% | 100% | 100% | 100% | 97% | 100% | 77% | 97% | pest or weed control at 200 ppm (Septoria tritici; 200 ppm): 99%; pest or weed control at 200 ppm (Rhizoctonia oryzae): 100%; pest or weed control at 200 ppm (Pythium aphanidermatum): 38%; pest or weed control at 200 ppm (Phytophthora infestans): 0% |
| CC(C)Cn1c(-c2ccc(F)cc2Cl)c(Cl)nc(-n2cccn2)c1=O [Compound 53, 5-Chloro-6-(2-chloro-4-fluorophenyl)-1-(2-methylpropyl)-3-(1H-pyrazol-1-yl)-2(1H)-pyrazinone] | – | – | – | – | – | – | – | – | – | – | – | – | 99% | 100% | 100% | 100% | 99% | 100% | 0% | 90% | Test J disease control rating (Septoria tritici; 40 ppm (*)): 100* %; pest or weed control at 200 ppm (Rhizoctonia oryzae): 82%; Test A disease control rating (Pythium aphanidermatum): 0%; Test F disease control rating (Phytophthora infestans): 0% |
| CC(C)Cn1c(-c2c(F)cccc2F)c(Cl)nc(-c2cn(C)cn2)c1=O [Compound 85, 5-Chloro-6-(2,6-difluorophenyl)-1-(2-methylpropyl)-3-(1-methyl-1H-imidazol-4-yl)-2(1H)-pyrazinone] | – | – | – | – | – | – | – | – | – | – | – | – | 0% | 80% | 97% | 99% | 95% | 100% | 0% | 55% | pest or weed control at 200 ppm (Septoria tritici; 200 ppm): 100%; pest or weed control at 200 ppm (Pythium aphanidermatum): 0%; pest or weed control at 200 ppm (Phytophthora infestans): 0% |
| COc1nc(-n2cccn2)c(=O)n(C2CCCCC2)c1-c1c(F)cccc1F [compound 49] | – | – | – | – | – | – | – | – | – | – | – | – | – | – | – | – | – | – | – | – | Test L disease control rating [1]: 21%; Test B disease control rating [2]: 0%; Test H disease control rating (Septoria nodorum): 0%; Test K disease control rating [3]: 0%; Test C disease control rating (Sclerotinia sclerotiorum): 0%; Test E disease control rating (Botrytis cinerea): 47%; Test D disease control rating (Plasmopara viticola): 8%; Test I disease control rating (fusarium graminearium): 0%; Test G disease control rating (Rhizoctonia oryzae): 16%; Test A disease control rating (Pythium aphanidermatum): 0%; Test F disease control rating (Phytophthora infestans): 0% |
